According to US20260174750A1 (Merck Sharp & Dohme LLC, priority 2022, published 2026):

Biological target: T1, human DGAT2 (Homo sapiens, UniProt Q96PD7)
T1 sequence (Q96PD7 1-388): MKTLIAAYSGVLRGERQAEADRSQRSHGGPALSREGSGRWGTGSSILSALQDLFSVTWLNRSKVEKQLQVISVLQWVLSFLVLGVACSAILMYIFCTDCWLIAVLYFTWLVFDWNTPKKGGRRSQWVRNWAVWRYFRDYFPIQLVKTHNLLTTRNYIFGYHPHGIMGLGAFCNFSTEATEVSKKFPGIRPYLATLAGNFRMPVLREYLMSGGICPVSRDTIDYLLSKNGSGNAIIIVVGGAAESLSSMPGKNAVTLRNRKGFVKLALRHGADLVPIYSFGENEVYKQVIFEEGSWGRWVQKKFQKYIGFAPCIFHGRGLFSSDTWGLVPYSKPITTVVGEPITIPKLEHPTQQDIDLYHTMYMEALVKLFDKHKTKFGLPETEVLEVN
Assay: biochemical
Protocol: Cell pellets were suspended in buffer containing 10 mM Tris-HCl pH 7.5, 1 mM EDTA, 250 mM sucrose and Complete Protease Inhibitor Cocktail (Sigma Aldrich), and sonicated on ice. Cell debris were removed by centrifugation at 2000×g for 15 minutes. Membrane fractions were isolated by ultracentrifugation (100,000×g), resuspended in the same buffer, and frozen (−80° C.) for later use. The protein concentration was determined with the Pierce™ BCA Protein Assay Kit (Thermo Fisher Scientific).
LC/MS/MS analyses were performed using Thermal Fisher's LX4-TSQ Vantage system. This system consists of an Agilent binary high-performance liquid chromatography (HPLC) pump and a TSQ Vantage triple quadrupole MS/MS instrument. For each sample, 2 μL samples from the top organic layer of in-plate liquid-liquid extraction were injected onto a Thermo Betabasic C4 column (2.1 mm×20 mm, 5 μm particle size). The samples were then eluted using the following conditions; mobile phase: Isopropanol:acetonitrile/10 mM ammonium formate=50/35/15 (v/v/v), flow rate: 0.8 mL/min, temperature: 25° C. Data was acquired in positive mode using a heated electrospray ionization (HESI) interface. […] The peak area was integrated by Xcalibur Quan software. The ratio between the ^13C18 triolein generated in the reaction and spiked in internal standard ^13C21-triolein was used to generate percentage inhibition and IC50 values. […] DGAT2 activity was determined by measuring the amount of enzymatic product ^13C18-triolein (^13C-1,2,3-Tri(cis-9-octadecenoyl)glycerol) using the membrane prep mentioned above. The assay was carried out in ABgene 384-well assay plates in a final volume of 25 μL at rt.

IC50	SMILES
0.017 µM	CCOc1cccnc1Oc1ccc2nc(C(=O)NC3(C)CCS(=O)(=O)CC3)nn2c1 [Example 2, 6-[(3-ethoxy-2-pyridyl)oxy]-N-(4-methyl-1,1-dioxo-thian-4-yl)-[1,2,4]triazolo[1,5-a]pyridine-2-carboxamide]
0.103 µM	CCOc1cccnc1Oc1ccc2nc(C(=O)NC3(C)CS(=O)(=O)C3)nn2c1 [Example 3, 6-[(3-ethoxy-2-pyridyl)oxy]-N-(3-methyl-1,1-dioxo-thietan-3-yl)-[1,2,4]triazolo[1,5-a]pyridine-2-carboxamide]
0.384 µM	CCOc1cccnc1Oc1ccc2nc(C(=O)N[C@H]3CCOC3)nn2c1 [Example 4, 6-[(3-ethoxy-2-pyridyl)oxy]-N-[(3S)-tetrahydrofuran-3-yl]-[1,2,4]triazolo[1,5-a]pyridine-2-carboxamide]
2.44 µM	CCOc1cccnc1Oc1ccc2nc(C(=O)N[C@@H]3CCOC3)nn2c1 [Example 5, 6-[(3-ethoxy-2-pyridyl)oxy]-N-[(3R)-tetrahydrofuran-3-yl]-[1,2,4]triazolo[1,5-a]pyridine-2-carboxamide]
0.149 µM	CCOc1cccnc1Oc1ccc2nc(C(=O)N[C@H]3CC[C@@](OC)(C(F)(F)F)CC3)nn2c1 [Example 6, 6-[(3-ethoxy-2-pyridyl)oxy]-N-[4-methoxy-4-(trifluoromethyl)cyclohexyl]-[1,2,4]triazolo[1,5-a]pyridine-2-carboxamide]
0.126 µM	CC1(NC(=O)c2nc3ccc(Oc4ncccc4OCC(F)(F)F)cn3n2)CCS(=O)(=O)CC1 [Example 7, N-(4-methyl-1,1-dioxo-thian-4-yl)-6-[[3-(2,2,2-trifluoroethoxy)-2-pyridyl]oxy]-[1,2,4]triazolo[1,5-a]pyridine-2-carboxamide]
0.177 µM	CC1(NC(=O)c2nc3ccc(Oc4ncccc4OCC(F)(F)F)cn3n2)CCC(F)(F)CC1 [Example 8, N-(4,4-difluoro-1-methyl-cyclohexyl)-6-[[3-(2,2,2-trifluoroethoxy)-2-pyridyl]oxy]-[1,2,4]triazolo[1,5-a]pyridine-2-carboxamide]
8.25 µM	CC1(NC(=O)c2nc3ccc(Oc4ncccc4OCC(F)(F)F)cn3n2)CC(F)(F)C1 [Example 9]
0.151 µM	CC1(NC(=O)c2nc3ccc(Oc4ncc(Cl)cc4OCC(F)(F)F)cn3n2)CS(=O)(=O)C1 [Example 10, 6-[[5-chloro-3-(2,2,2-trifluoroethoxy)-2-pyridyl]oxy]-N-(3-methyl-1,1-dioxo-thietan-3-yl)-[1,2,4]triazolo[1,5-a]pyridine-2-carboxamide]
0.06 µM	O=C(N[C@H]1CCCC(F)(F)[C@@H]1O)c1nc2ccc(Oc3ncc(Cl)cc3OCC(F)(F)F)cn2n1 [Example 11]
0.011 µM	Cc1c(Oc2ncc(Cl)cc2OCC2(F)CC2)ccc2nc(C(=O)NC3(C)CCS(=O)(=O)CC3)nn12 [Example 15, 6-[[5-chloro-3-[(1-fluorocyclopropyl)methoxy]-2-pyridyl]oxy]-5-methyl-N-(4-methyl-1,1-dioxo-thian-4-yl)-[1,2,4]triazolo[1,5-a]pyridine-2-carboxamide]
0.025 µM	Cc1c(Oc2ncc(F)cc2OCC2(F)CC2)ccc2nc(C(=O)NC3(C)CCS(=O)(=O)CC3)nn12 [Example 16, 6-[[5-fluoro-3-[(1-fluorocyclopropyl)methoxy]-2-pyridyl]oxy]-5-methyl-N-(4-methyl-1,1-dioxo-thian-4-yl)-[1,2,4]triazolo[1,5-a]pyridine-2-carboxamide]
0.05 µM	Cc1c(Oc2ncc(Cl)cc2OCC(C)(F)F)ccc2nc(C(=O)NC3(C)CCS(=O)(=O)CC3)nn12 [Example 18]
0.21 µM	Cc1c(Oc2ncc(F)cc2OCC(C)(F)F)ccc2nc(C(=O)NC3(C)CCS(=O)(=O)CC3)nn12 [Example 19, 6-[[3-(2,2-difluoropropoxy)-5-fluoro-2-pyridyl]oxy]-5-methyl-N-(4-methyl-1,1-dioxo-thian-4-yl)-[1,2,4]triazolo[1,5-a]pyridine-2-carboxamide]
0.581 µM	Cc1c(Oc2ncc(Cl)cc2OCC(F)(F)F)ccc2nc(C(=O)N[C@H]3CCCC(F)(F)[C@@H]3O)nn12 [Example 21, 6-[[5-chloro-3-(2,2,2-trifluoroethoxy)-2-pyridyl]oxy]-N-[(1S,2R)-3,3-difluoro-2-hydroxy-cyclohexyl]-5-methyl-[1,2,4]triazolo[1,5-a]pyridine-2-carboxamide]
0.091 µM	Cc1cc2nc(C(=O)N[C@H]3CCCC(F)(F)[C@@H]3O)nn2cc1Oc1ncc(Cl)cc1OCC(F)(F)F [Example 23, 6-[[5-chloro-3-(2,2,2-trifluoroethoxy)-2-pyridyl]oxy]-N-[(1S,2R)-3,3-difluoro-2-hydroxy-cyclohexyl]-7-methyl-[1,2,4]triazolo[1,5-a]pyridine-2-carboxamide]
0.181 µM	Cc1cc2nc(C(=O)NC3(C)CCS(=O)(=O)CC3)nn2c(C)c1Oc1ncc(Cl)cc1OCC(F)(F)F [Example 24, 6-((5-Chloro-3-(2,2,2-trifluoroethoxy)pyridin-2-yl)oxy)-5,7-dimethyl-N-(4-methyl-1,1-dioxidotetrahydro-2H-thiopyran-4-yl)-[1,2,4]triazolo[1,5-a]pyridine-2-carboxamide]
0.091 µM	Cc1cc2nc(C(=O)NC3(C)CCS(=O)(=O)CC3)nn2c(C)c1Oc1nccnc1OCC(F)(F)F [Example 25, 5,7-dimethyl-N-(4-methyl-1,1-dioxo-thian-4-yl)-6-[3-(2,2,2-trifluoroethoxy)pyrazin-2-yl]oxy-[1,2,4]triazolo[1,5-a]pyridine-2-carboxamide]
0.0095 µM	CC1(NC(=O)c2nc3c(F)cc(Oc4ncc(Cl)cc4OCC(F)(F)F)cn3n2)CCS(=O)(=O)CC1 [Example 26, 6-((5-Chloro-3-(2,2,2-trifluoroethoxy)pyridin-2-yl)oxy)-8-fluoro-N-(4-methyl-1,1-dioxidotetrahydro-2H-thiopyran-4-yl)-[1,2,4]triazolo[1,5-a]pyridine-2-carboxamide]
0.012 µM	Cc1c(Oc2ncc(Cl)cc2OCC(F)(F)F)cc(F)c2nc(C(=O)NC3(C)CCS(=O)(=O)CC3)nn12 [Example 28, 6-[[5-Chloro-3-(2,2,2-trifluoroethoxy)-2-pyridyl]oxy]-8-fluoro-5-methyl-N-(4-methyl-1,1-dioxo-thian-4-yl)-[1,2,4]triazolo[1,5-a]pyridine-2-carboxamide]
0.383 µM	Cc1c(Oc2ncc(Cl)cc2OCC(F)(F)F)cc(F)c2nc(C(=O)NC3(C)CS(=O)(=O)C3)nn12 [Example 29, 6-[[5-chloro-3-(2,2,2-trifluoroethoxy)-2-pyridyl]oxy]-8-fluoro-5-methyl-N-(3-methyl-1,1-dioxo-thietan-3-yl)-[1,2,4]triazolo[1,5-a]pyridine-2-carboxamide]
0.019 µM	Cc1c(Oc2ncc(F)cc2OCC(F)(F)F)cc(F)c2nc(C(=O)NC3(C)CCS(=O)(=O)CC3)nn12 [Example 30, 8-fluoro-6-[[5-fluoro-3-(2,2,2-trifluoroethoxy)-2-pyridyl]oxy]-5-methyl-N-(4-methyl-1,1-dioxo-thian-4-yl)-[1,2,4]triazolo[1,5-a]pyridine-2-carboxamide]
0.03 µM	Cc1c(Oc2ncc(Cl)cc2OCC(C)(F)F)cc(F)c2nc(C(=O)NC3(C)CCS(=O)(=O)CC3)nn12 [Example 31, 6-[[5-chloro-3-(2,2-difluoropropoxy)-2-pyridyl]oxy]-8-fluoro-5-methyl-N-(4-methyl-1,1-dioxo-thian-4-yl)-[1,2,4]triazolo[1,5-a]pyridine-2-carboxamide]
0.061 µM	Cc1c(Oc2ncc(F)cc2OCC(C)(F)F)cc(F)c2nc(C(=O)NC3(C)CCS(=O)(=O)CC3)nn12 [Example 32, 6-[[3-(2,2-difluoropropoxy)-5-fluoro-2-pyridyl]oxy]-8-fluoro-5-methyl-N-(4-methyl-1,1-dioxo-thian-4-yl)-[1,2,4]triazolo[1,5-a]pyridine-2-carboxamide]
0.031 µM	Cc1c(Oc2nccnc2OCC(F)F)cc(F)c2nc(C(=O)NC3(C)CCS(=O)(=O)CC3)nn12 [Example 34, 6-[3-(2,2-difluoroethoxy)pyrazin-2-yl]oxy-8-fluoro-5-methyl-N-(4-methyl-1,1-dioxo-thian-4-yl)-[1,2,4]triazolo[1,5-a]pyridine-2-carboxamide]
1.68 µM	Cc1c(OCc2ncc(F)cc2OCC(F)(F)F)ccc2nc(C(=O)NC3(C)CCS(=O)(=O)CC3)nn12 [Example 35, 6-((5-Fluoro-3-(2,2,2-trifluoroethoxy)pyridin-2-yl)methoxy)-5-methyl-N-(4-methyl-1,1-dioxidotetrahydro-2H-thiopyran-4-yl)-[1,2,4]triazolo[1,5-a]pyridine-2-carboxamide]
0.336 µM	Cc1c(OCc2ncc(Cl)cc2OCC(F)F)ccc2nc(C(=O)NC3(C)CCS(=O)(=O)CC3)nn12 [Example 36, 6-((5-chloro-3-(2,2-difluoroethoxy)pyridin-2-yl)methoxy)-5-methyl-N-(4-methyl-1,1-dioxidotetrahydro-2H-thiopyran-4-yl)-[1,2,4]triazolo[1,5-a]pyridine-2-carboxamide]
